The nature of this data set: gradient 5% acetonitrile 3 min, to 50% in 2 min, to 85% in 15 min, held 3 min, 100 µL/min. The conditions noted are these: column: Zorbax Extend-C18 2.1 x 50 mm; eluents: water / acetonitrile, 0.1% formic acid. The procedure, abridged: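 A Zorbax Extend-C18 column (2.1 × 50 mm, 1.8 μm) run at 100 μL/min with water and acetonitrile, both containing 0.1% formic acid, separated mixtures of ~100 pure standards. The HPLC was coupled to a quadrupole time-of-flight mass spectrometer operated in positive and negative ionization mode, with dead and dwell volumes of 40 μL and 900 μL. Each retention time was taken from a computationally picked adduct peak that was then manually inspected.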
Take `COc1ccc(OC)c(NC(=O)c2cc3c(n(-c4ccc(F)cc4)c2=O)CCCC3=O)c1`: the RP-LC retention time came to 930 s.

The compound `Cc1ccc(-c2[nH]ncc2CNS(=O)(=O)c2cccc3nsnc23)cc1C` yielded an RP-LC retention time of 802 s.

`Nc1ccc(Br)cc1Br` had an RP-LC retention time of 1000 s.

Compound `COc1ccc(NC(=O)C2CCN(S(=O)(=O)c3ccc4c(c3)sc(=O)n4C(C)C)CC2)cc1` had an RP-LC retention time of 922 s.

`Cc1ccc(Sc2nccnc2N2CCCC(C(=O)Nc3ccc(F)c(C)c3)C2)cc1` (stereo not given) gave an RP-LC retention time of 1230 s.

`CC(=O)c1ccc(NS(=O)(=O)c2ccc(-c3c(C)noc3C)cc2)cc1`: the RP-LC retention time was determined as 813 s.

As for `COc1ccc(CCc2nc(-c3ccc4c(c3)nc(C)c(=O)n4C)no2)cc1`, the RP-LC retention time was 946 s.

In turn, `CCOC(=O)C1CCCN(Cc2nc3nc(C)cc(N4CCCC4)n3n2)C1` (stereo not given) had an RP-LC retention time of 579 s.

The compound `CCOc1cccc(-c2noc(Cn3c(=O)n(CCCOC)c(=O)c4ccccc43)n2)c1` yielded an RP-LC retention time of 1040 s.

The compound `O=C(NC1CC1)c1cccnc1N1CCSCC1` yielded an RP-LC retention time of 623 s.

As for `O=C(NCc1ccc2c(c1)OCO2)c1ccc2c(c1)NC(=O)C1CCCCN21` (stereo not given), the RP-LC retention time came to 765 s.

Regarding `CCCN(Cc1ccc(OC)cc1)Cc1cc(=O)n2cccc(C)c2n1`, the RP-LC retention time was found to be 644 s.

In turn, `CCOc1cccc(CN2CCc3nc(N4CCN(c5ccccc5F)CC4)ncc3C2)c1` had an RP-LC retention time of 852 s.

Regarding `O=C(c1cc(Cl)ccc1Cl)N1CCN(CC(O)c2cccs2)CC1` (stereo not given), the RP-LC retention time turned out to be 581 s.

The compound `COC(=O)C1C(O)CCC2CN3CCc4c([nH]c5ccccc45)C3CC21` (stereo not given) returned an RP-LC retention time of 673 s.

`COc1ccc(Cl)cc1NC(=O)NCC(=O)N1CCc2ccccc21` registered an RP-LC retention time of 930 s.

The compound `Cc1ccccc1NC(=O)CN1C(=O)CCc2cc(S(=O)(=O)N3CCCCC3C)ccc21` (stereo not given) came in with an RP-LC retention time of 896 s.

The compound `CCNc1cc(N2CCCC(CCC(=O)NCc3cccc(F)c3)C2)ncn1` (stereo not given) displayed an RP-LC retention time of 585 s.

As for `CCn1ccc2c(cc(C(=O)Nc3cccc(F)c3)n2C)c1=O`, the RP-LC retention time was determined as 768 s.

Consider `COc1ccccc1C(=O)Nc1nnc(SCc2ccc(Br)cc2)s1`, for which the RP-LC retention time worked out at 1140 s.

In the case of `Cc1nc(Cn2cccc2C(=O)N2CCc3ccccc32)no1`, the RP-LC retention time was determined as 885 s.

For `O=C(NC1CCN(c2cc(-c3ccc(F)cc3)[nH]n2)C1)c1ccc(Cl)cc1` (stereo not given), the RP-LC retention time was determined as 777 s.

Regarding `Cc1ccc(Nc2c(-c3cccc(Br)c3)nc3cccc(C)n23)cc1`, the RP-LC retention time came to 826 s.

For the compound `COc1ccc(F)cc1S(=O)(=O)N1CCC2(CCC(CN3CCN(C)CC3)O2)CC1` (stereo not given), the RP-LC retention time was 601 s.

The compound `CN1C(=O)c2cccn2CC1CNC(=O)Nc1ccccc1` (stereo not given) yielded an RP-LC retention time of 647 s.

`Cc1ccc2cc(CCC(=O)NCCCN3CCCCC3)c(=O)[nH]c2c1` returned an RP-LC retention time of 584 s.

As for `COc1cccc(/C=C/c2nc(C#N)c(NCCCN(C)C)o2)c1`, the RP-LC retention time is 651 s.

Regarding `CC1CCN(S(=O)(=O)c2cc(C(=O)N3CCN(c4cccc(Cl)c4)CC3)n(C)c2)CC1`, the RP-LC retention time is 1120 s.

With `O=C1COc2ccc(Cl)cc2N1Cc1nc(-c2cccc(-c3csc(C4CC4)n3)c2)no1`, the RP-LC retention time was 1300 s.

With `COc1ccc(-c2cc(N3CCC(NC(=O)c4ccc(Br)o4)CC3)n[nH]2)cc1`, the RP-LC retention time was 735 s.

Take `CN(C)CCNC(=O)c1cccc(Nc2c(-c3ccc(Cl)cc3)nc3cnccn23)c1`: the RP-LC retention time turned out to be 611 s.

For `Cc1nn(C(C)C(=O)NCCCN(C)Cc2ccccc2)c(=O)c2nn(-c3ccccc3)c(C)c12` (stereo not given), the RP-LC retention time is 678 s.

In turn, `O=C(Nc1ccc2cn[nH]c2c1)c1ccc2nc[nH]c2c1` had an RP-LC retention time of 541 s.

On to `CCOC(=O)c1cncn1C(C)c1ccccc1` (stereo not given), for which the RP-LC retention time came out at 774 s.

In turn, `CCc1nc2cccnc2n1C1CCN(C(=O)CCCc2ccccc2)C1` (stereo not given) displayed an RP-LC retention time of 647 s.

On to `O=C(c1ccc(CS(=O)(=O)c2cccc(C(F)(F)F)c2)o1)N1CCN(c2ccccn2)CC1`, for which the RP-LC retention time was 645 s.

In turn, `CCOC(=O)C1CCCN(c2ncnc3c2cnn3-c2ccccc2)C1` (stereo not given) had an RP-LC retention time of 1070 s.

Regarding `O=C(c1ccc(Br)o1)N1CCC(Cc2nnc(-c3ccccc3)o2)CC1`, the RP-LC retention time was 881 s.

For `COc1ccccc1NC(=O)C1=C(C)NC(=O)NC1c1cccs1` (stereo not given), the RP-LC retention time is 665 s.

Take `COc1ccc(Cl)cc1C(=O)N1CCN(c2ccc(-c3nc(C)cs3)cn2)CC1`: the RP-LC retention time stood at 909 s.

For the compound `CC(=O)Nc1ccc(OCC(=O)NCc2ccc(N3CCOCC3)cc2)nc1`, the RP-LC retention time was 604 s.

In turn, `O=C(NCCc1ccccn1)c1cccc(N2CCNC(c3ccccc3)C2)n1` (stereo not given) gave an RP-LC retention time of 554 s.

Take `CCCn1c(=O)sc2cc(S(=O)(=O)N3CCC(C(=O)Nc4cccc(OC)c4)CC3)ccc21`: the RP-LC retention time is 978 s.

As to `Cc1cc(C)nc(Nc2nc3ccccc3[nH]2)n1`, the RP-LC retention time was 615 s.

The compound `CCn1cc(S(=O)(=O)N2CC3(CCCCC3)CC2COc2ccc(OC)cc2)cn1` (stereo not given) gave an RP-LC retention time of 1090 s.

`CCN1C(=O)C2(CCN(C(=O)CC(C)C)CC2)c2ccccc21` yielded an RP-LC retention time of 818 s.

Compound `Cn1cnc(S(=O)(=O)N2CCC(C(=O)NCc3ccccc3)CC2)c1` had an RP-LC retention time of 660 s.

`Cc1ccccc1CC(=O)N1CCC(n2c(=O)n(C)c3cncnc32)C1` (stereo not given) showed an RP-LC retention time of 652 s.

`Cc1cccc2c(=O)n(C3CCN(C(=O)Nc4ccc5c(c4)OCCO5)CC3)cnc12` showed an RP-LC retention time of 766 s.

Turning to `CCc1nnc(-c2cc(C)n(CC(=O)Nc3cc(C)cc(C)c3)c2C)o1`, the RP-LC retention time was 887 s.

`O=C(NCc1ccco1)C1CCN(c2cc(N3CCCCC3)ncn2)CC1`: the RP-LC retention time was 632 s.

For the compound `COc1ccc(OC)c(NC(=O)c2cnc(-c3ccc(F)cc3)nc2-c2ccncc2)c1`, the RP-LC retention time was determined as 915 s.

In the case of `COc1ccc(-c2nc3cccnc3n2C2CCN(C(=O)NCC(C)C)C2)cc1` (stereo not given), the RP-LC retention time is 680 s.

Turning to `CCOc1ccccc1-c1nc(-c2ccc3ncn(CC)c3c2)no1`, the RP-LC retention time came out at 788 s.

For the compound `CCc1nc2sc(C(C)C)nn2c1S(=O)(=O)N1CCSCC1`, the RP-LC retention time was 962 s.

Take `Cc1cccc(NC(=O)c2csc(-c3cn(C)c4ncccc34)n2)c1C`: the RP-LC retention time turned out to be 1050 s.

As for `Cn1nc(-c2nnc(-c3ccc(F)cc3)o2)c2c1CCN(S(=O)(=O)c1ccc(F)c(Cl)c1)C2`, the RP-LC retention time was 990 s.

Turning to `Cc1nnc2c(=O)n(CC(=O)NCc3ccc(N(C)C)cc3)c3cccnc3n12`, the RP-LC retention time was determined as 570 s.

Compound `COC(=O)c1ccccc1Nc1c(-c2ccc(SC)cc2)nc2cnccn12` showed an RP-LC retention time of 1070 s.

`Cc1noc(C2CN(C(=O)Nc3ccc(F)cc3F)CC23CCOCC3)n1` (stereo not given) gave an RP-LC retention time of 695 s.

For the origin of these results see the METLIN SMRT retention time set (Domingo-Almenara et al. 2019).
